“Also recorded” adds a separate entry of the source.
What was measured:
anaesthetised sheep = assay: Myocardial ischaemia and reperfusion injury in anaesthetised sheep; type: in vivo; settings: for infarct size normalized to the area at risk (IS/AR): lower dose: DiOHF3HA 2.7 mg/kg, DiOHF 2 mg/kg i.v.; for effect on infarct size / cardioprotection: i.v. in aqueous solution after 30 min of ischaemia
Procedure: The ability of the synthetic flavonol, 3′,4′ dihydroxy flavonol adipate (DiOHF3HA) to prevent myocardial ischaemia and reperfusion injury in anaesthetised Sheep was assessed.
Five groups of anaesthetised adult merino sheep (35-45 kg wethers) were examined:
Anaesthesia was induced by intravenous thiopentone sodium (15 mg/kg) and following tracheal intubation was maintained by isoflurane (1.5-2%). A catheter was inserted in the right facial artery for arterial blood sampling and monitoring arterial pressure. Intravenous infusions were made via a catheter inserted into the jugular vein. The heart was exposed through a left thoracotomy performed at the fourth intercostal space. A 4F catheter-tipped manometer was inserted through the left atrium into the left ventricle to measure left ventricular pressure (LVP). An additional silastic cannula was inserted into the left atrial appendage for the injection of lignocaine and for infusion of Evans Blue. The left anterior descending coronary artery (LAD) was dissected from the epicardium immediately distal to its second diagonal branch, and a transit-time 2 mm flow probe was placed around it to monitor the LAD blood flow. A silk suture was passed under the LAD proximal to the probe and both ends of the silk were threaded through a plastic tube to form a vascular snare.
The animals were allowed to stabilise for 10-15 minutes after the completion of the surgical procedure. Sheep were then randomly divided into different treatment groups. All sheep had 30 minute baseline recording followed by 1 hour ischaemia and 3 hours reperfusion.
During the course of the experiment, haemodynamic measurements were recorded at 5 minute intervals and blood samples were taken at designated time-points. After 30 minutes of ischaemia, flavonol treatment was administered. DiOHF was dissolved in 2 ml DMSO plus 14 ml polyethylene glycol:water (1:1). DiOHF3HA was dissolved in 20 ml 0.1M Na2CO3. The drugs were given at 1 ml/min i.v. The two doses of DiOHF3HA (2.7 mg/kg and 6.6 mg/kg) were chosen to achieve equivalent molar doses to the parent DiOHF compound (at 2 mg/kg and 5 mg/kg, respectively). […] Lignocaine was used, as required, to ameliorate arrhythmias.
The area of myocardium at risk and infarct size were delineated by Evan's blue and triphenyltetrazolium chloride (TTC) staining. After 3 hours of reperfusion, the LAD was re-occluded at the original occlusion site. Immediately after intravenous injection of pentobarbitone (100 mg kg^−1) to arrest the heart, Evan's blue dye (1.5%, 40 ml) was injected into the left atrium to define the myocardium at risk. The heart was rapidly removed and the left ventricle was sliced into transverse sections about 1 cm thick. The unstained risk area was traced onto the same transparencies. The sections were then incubated in 0.1 M sodium phosphate buffer containing 1% TTC for 20 min (37° C., pH 7.4). The infarcted area was traced onto transparencies. The area of myocardium at risk, and infarct size, were measured by computerised planimetry. The former was expressed as a percentage of total left ventricular volume (AR/LV %) and infarct size was expressed as a percentage of the area of myocardium at risk (IS/AR %).
Arterial blood samples (5 ml) were collected into chilled heparinised tubes at baseline, during ischaemia and at three time points during the reperfusion period (1 hour, 2 hour and 3 hour). Following centrifugation at 4° C., plasma samples were stored at −20° C. until measurement to determine levels of lactate dehydrogenase and creatinine kinase.

anaesthetised rats = assay: Arterial pressure and heart rate in anaesthetised rats after intravenous injection; type: in vivo, rat; settings: for change in heart rate (HR) / change in mean arterial pressure (MAP): intravenous, anaesthetised rats
Procedure: A unit dosage of an aqueous solution of 3-hydroxyflavone-3-hemiadipate (15) was administered to a group of male anesthetized Sprague Dawley rats intravenously and the blood pressure monitored over a period of time.
Male Sprague-Dawley rats (250-350 g) were anaesthetised with pentobarbitone sodium (60 mg kg^−1, ip). The trachea was isolated and cannulated with polyethylene tracheal tube (I.D. 2.0 mm), and the rat was allowed to breathe spontaneously.
The right carotid artery was cannulated and connected with a heparinised saline filled cannula (O.D. 0.75, I.D, 0.58 mm) and connected to a pressure transducer. Mean and phasic arterial pressure were continuously measured and recorded on a polygraph. The heart rate, was derived from the phasic arterial pressure using a tachometer.
DiOHF3HA ([…]) was injected intravenously, allowing at least 30 min between injections, and the peak changes in mean arterial pressure and heart rate measured. […] In a separate group of experiments ACh (0.3 mg/kg iv) and phenylephrine (PE, […]) were injected before and 30 minutes after DiOHF3HA (3 mg/kg iv), a time when arterial pressure and heart rate had returned to control levels. […]

[1] = tested on: rat aorta precontracted with PE; assay: Direct relaxation of PE/U46619-precontracted rat aortic rings; type: cell-based
Procedure: Following testing of endothelial integrity, rings were repeatedly washed and re-equilibrated for 30 minutes before the addition of PE (10^−8−2×10^−7 M) and 9,11-dideoxy-9α, 11α-epoxymethano-prostaglandin F2α (U46619, 10^−9-10^−8 M) to produce an active force in the range of 40-60% of KPSS-induced contraction. The level of precontraction was matched between the various groups by adjusting the concentrations of PE and U46619. Cumulative concentration-response curves in the range 10^−8-10^−4 M were conducted for 3′,4′-dihydroxyflavonol, 3-hydroxyflavone-3-hemiadipate, 3′,4′-dihydroxy-3-hemiadipate, 3-hydroxyflavone-3-phosphate.
Experiments were conducted in the presence of an esterase, butyryl cholinesterase (BuCHE, 1000 U/L) for the hemiadipate derivates and a phosphatase 1000 U/L) in the case of the phosphate derivatives.
Following testing of endothelial integrity, rings were repeatedly washed and re-equilibrated for 30 minutes before the addition of PE (10^−8−2×10^−7 M) and 9,11-dideoxy-9α, 11α-epoxymethano-prostaglandin F2α (U46619, 10^−9-10^−7 M) to produce an active force in the range of 40-60% of KPSS-induced contraction. Cumulative concentration-response curves in the range 10^−7-10^−4 M were conducted for vehicle, 3′-hydroxyflavonol, F3HA, DiOHF3HA, F3P. Experiments were conducted in the presence and absence of 1000 U/L BuCHE to cleave the adipate in F3HA and DiOHF3HA. In experiments using F3P 1000 U/L phosphatase was used in some experiments to cleave the phosphate.

[2] = Solubility in aqueous solution; type: physicochemical; settings: water
rat aortic rings = assay: Relaxation of rat aortic rings in response to A23187 or isoprenaline; type: cell-based; settings: 0.1 mM, absence or presence of cholinesterase
[3] = 30 min after DiOHF3HA 3 mg/kg iv

Row | Compound | infarct size normalized to the area at risk (IS/AR) (anaesthetised sheep) [%] | change in heart rate (HR) (anaesthetised rats) | change in mean arterial pressure (MAP) (anaesthetised rats) | direct relaxing effect on precontracted vessels ([1]; DiOHF3HA plus 1000 U/L BuCHE) | direct relaxing effect on precontracted vessels ([1]; substance alone) | regression of LAD flow after reperfusion hyperperfusion (anaesthetised sheep; 6.6 mg/kg vs control) | haemodynamic indices (arterial pressure, HR, LV-EDP, dP/dtmax) during infusion (anaesthetised sheep; 20-min i.v. infusion, 6.6 mg/kg) | increase in plasma creatine kinase (anaesthetised sheep; after 1 hour ischaemia and 3 hours reperfusion) [U/L] | increase in plasma lactate dehydrogenase (anaesthetised sheep; after 1 hour ischaemia and 3 hours reperfusion, n=4) [U/L] | effect on infarct size / cardioprotection (anaesthetised sheep) | effect on infarct size / cardioprotection (anaesthetised sheep; listed as Adipate) | PE-induced increase in arterial pressure (anaesthetised rats; [3]) | depressor response to ACh (anaesthetised rats; [3]) | solubility in aqueous solution [2] | relaxation in response to A23187 or isoprenaline (rat aortic rings)
1 | O=c1c(O)c(-c2ccc(O)c(O)c2)oc2ccccc12 [DiOHF, 3′,4′-Dihydroxyflavonol, reference compound] | 73 | dose-dependent decrease in HR | dose-dependent decreases in MAP | – | – | – | – | – | – | – | – | – | – | – | –
2 | O=C(O)CCCCC(=O)Oc1c(-c2ccc(O)c(O)c2)oc2ccccc2c1=O [DiOHF3HA, 3′,4′-dihydroxyflavone-3-hemiadipate] | 64 | dose-dependent decrease in HR; also recorded: dose-dependent decreases; also recorded: concentration dependent decreases | dose-dependent decrease in MAP; also recorded: dose-dependent decreases; also recorded: concentration dependent decreases | marked effect on vascular tone; also recorded: direct relaxation of pre-contracted rat aortic rings only in the presence of the esterase; also recorded: cause direct relaxation of rat aortic rings | no effect on PE precontracted vessels | more rapid | did not alter haemodynamic indices; also recorded: unchanged | 1579±936 | 67±32 | dose-related reduction in infarct size; also recorded: equivalent degree of cardioprotection to the parent compound | significant difference in infarct size | diminished; also recorded: attenuated the PE-induced increase in arterial pressure | significantly enhanced the depressor response to ACh | soluble in aqueous solution, particularly water | no effect on endothelium-dependent relaxation

Source: US8017649B2, “Flavonoid compounds and uses thereof” (Howard Florey Institute of Experimental Physiology and …, priority 2005, dated 2011)
